Assays:
DPP-IV = DPP-IV (Homo sapiens, UniProt P27487); assay: Tolerance of GLP-1 and its analogues to DPP-IV (RP-HPLC remaining peak area); type: in vitro ADME; details: peptide 25 μM, DPP-IV 0.5 ng/μL, 37° C.; for Remaining peak area (%)/DPP-IV: 0.0 h; for remaining at 0.5 h, 25 μM / remaining at 2 h, 25 μM / remaining at 4 h, 25 μM / remaining at 8 h, 25 μM / remaining at 12 h, 25 μM: isolated DPP-IV enzyme in buffer, pH 8
Method: Mix by centrifugation at 8000 rpm for 30 seconds.
(2) Arrange a certain volume of 0.005 μg/μL DPP-IV solution in another sterile EP.

chymotrypsin = chymotrypsin (Bos taurus, UniProt P00766); assay: in vitro; details: for remaining at 0.025 h, 60 μM / remaining at 0.05 h, 60 μM / remaining at 0.075 h, 60 μM / remaining at 0.1 h, 60 μM / remaining at 0.15 h, 60 μM / remaining at 0.25 h, 60 μM / remaining at 0.5 h, 60 μM / remaining at 1 h, 60 μM: isolated enzyme chymotrypsin, pH 7.8, Remaining peak area (%)/chymotrypsin
In short: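 Peptide and 0.05 μg/μL chymotrypsin were preincubated at 37 °C for 5 min, then mixed. Aliquots taken from 1.5 up to 60.0 min were quenched with 10% TFA, and remaining peptide was measured as RP-HPLC peak area.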

[1] = Stability of GLP-1 and its analogues in human serum; details: 25% (v/v) human serum; for Remaining peak area (%)/human serum: 0.0 h, peptide 0.03 mM, 37° C.; for remaining at 0.5 h, 0.03 mM / remaining at 2 h, 0.03 mM / remaining at 4 h, 0.03 mM / remaining at 8 h, 0.03 mM / remaining at 12 h, 0.03 mM: human, pH 7

DPP-IV, sequence (P27487 whole entry, species assumed): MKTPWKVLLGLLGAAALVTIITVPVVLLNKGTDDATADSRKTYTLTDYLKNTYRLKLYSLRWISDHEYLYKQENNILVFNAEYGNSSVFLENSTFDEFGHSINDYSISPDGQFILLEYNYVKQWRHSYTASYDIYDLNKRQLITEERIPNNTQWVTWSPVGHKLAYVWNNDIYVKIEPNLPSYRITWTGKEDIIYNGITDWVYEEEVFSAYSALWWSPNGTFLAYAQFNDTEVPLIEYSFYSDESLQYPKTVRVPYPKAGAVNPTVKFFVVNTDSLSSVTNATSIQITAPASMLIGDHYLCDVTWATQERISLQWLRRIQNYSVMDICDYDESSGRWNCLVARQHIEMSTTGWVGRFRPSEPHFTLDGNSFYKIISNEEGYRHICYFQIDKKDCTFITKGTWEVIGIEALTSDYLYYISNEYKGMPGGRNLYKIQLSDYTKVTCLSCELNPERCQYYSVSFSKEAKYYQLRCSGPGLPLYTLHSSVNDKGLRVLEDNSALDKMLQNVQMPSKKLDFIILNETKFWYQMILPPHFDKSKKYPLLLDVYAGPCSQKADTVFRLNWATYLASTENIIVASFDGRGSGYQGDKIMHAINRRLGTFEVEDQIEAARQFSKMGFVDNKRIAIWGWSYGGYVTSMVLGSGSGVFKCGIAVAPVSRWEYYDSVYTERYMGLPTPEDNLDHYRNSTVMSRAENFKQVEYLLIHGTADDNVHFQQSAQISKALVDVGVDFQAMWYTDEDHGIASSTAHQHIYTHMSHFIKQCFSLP

remaining at 0.025 h, 60 μM (chymotrypsin) [%]	remaining at 0.05 h, 60 μM (chymotrypsin) [%]	remaining at 0.075 h, 60 μM (chymotrypsin) [%]	remaining at 0.1 h, 60 μM (chymotrypsin) [%]	remaining at 0.15 h, 60 μM (chymotrypsin) [%]	remaining at 0.25 h, 60 μM (chymotrypsin) [%]	remaining at 0.5 h, 60 μM (chymotrypsin) [%]	remaining at 1 h, 60 μM (chymotrypsin) [%]	Remaining peak area (%)/human serum [1] [%]	remaining at 0.5 h, 0.03 mM [1] [%]	remaining at 2 h, 0.03 mM [1] [%]	remaining at 4 h, 0.03 mM [1] [%]	remaining at 8 h, 0.03 mM [1] [%]	remaining at 12 h, 0.03 mM [1] [%]	SMILES	Remaining peak area (%)/DPP-IV (DPP-IV) [%]	remaining at 0.5 h, 25 μM (DPP-IV) [%]	remaining at 2 h, 25 μM (DPP-IV) [%]	remaining at 4 h, 25 μM (DPP-IV) [%]	remaining at 8 h, 25 μM (DPP-IV) [%]	remaining at 12 h, 25 μM (DPP-IV) [%]	also measured
59.7 ± 2.1	59.1 ± 4.5	54.5 ± 1.2	57.3 ± 1.5	56.3 ± 4.7	54 ± 4.7	57.4 ± 4	59.4 ± 2.1	100.0 ± 0.0	74.4 ± 5.5	54.8 ± 2.1	26.2 ± 2.9	7.3 ± 1	0.8	CC[C@H](C)[C@H](NC(=O)[C@H](Cc1ccccc1)NC(=O)[C@H](CCC(=O)O)NC(=O)[C@H](CCCCN)NC(=O)[C@H](C)NC(=O)[C@H](C)NC(=O)[C@H](CCC(N)=O)NC(=O)CNC(=O)[C@H](CCC(=O)O)NC(=O)[C@H](CC(C)C)NC(=O)[C@H](Cc1ccc(O)cc1)NC(=O)[C@H](CO)NC(=O)[C@H](CO)NC(=O)[C@@H](NC(=O)[C@H](CC(=O)O)NC(=O)[C@H](CO)NC(=O)[C@@H](NC(=O)[C@H](Cc1ccccc1)NC(=O)[C@@H](NC(=O)CNC(=O)[C@H](CCC(=O)O)NC(=O)[C@H](C)NC(=O)[C@H](Cc1c[nH]cn1)NC(=O)CNC(=O)CNC(=O)[C@@H](NC(=O)[C@@H]1CCCN1C(=O)[C@@H](NC(=O)CNC(=O)CNC(=O)[C@H](Cc1ccc(O)cc1)NC(=O)[C@@H]1CSSC[C@H](NC(=O)[C@@H](N)Cc2ccccc2)C(=O)N[C@@H]([C@@H](C)O)C(=O)N[C@@H](Cc2ccc(O)cc2)C(=O)N[C@@H](CO)C(=O)N[C@@H]([C@@H](C)CC)C(=O)N2CCC[C@H]2C(=O)N2CCC[C@H]2C(=O)N[C@@H](CCC(N)=O)C(=O)N1)[C@@H](C)CC)[C@@H](C)CC)[C@@H](C)O)[C@@H](C)O)C(C)C)C(=O)N[C@@H](C)C(=O)N[C@@H](Cc1c[nH]c2ccccc12)C(=O)N[C@@H](CC(C)C)C(=O)N[C@H](C(=O)N[C@@H](CCCCN)C(=O)NCC(=O)N[C@@H](CCCNC(=N)N)C(=O)NCC(=O)NCC(=O)N[C@@H](CCCCN)C(=O)O)C(C)C [CH10-D-GLP-1]	100.0 ± 0.0	91.2 ± 3.2	94.1 ± 2.3	86.8 ± 0.8	84.1 ± 6.7	81.8 ± 0.6	
80.9 ± 1.7	78 ± 2.9	83.2 ± 0.3	83.9 ± 3	82.4 ± 3.9	78.5 ± 2.1	81.3 ± 2.8	76.3 ± 2.7	100.0 ± 0.0	106 ± 15.8	97.6 ± 5.4	83 ± 3.1	64 ± 6.8	58.2 ± 10	CC[C@H](C)[C@H](NC(=O)[C@H](Cc1ccccc1)NC(=O)[C@H](CCC(=O)O)NC(=O)[C@H](CCCCN)NC(=O)[C@H](C)NC(=O)[C@H](C)NC(=O)[C@H](CCC(N)=O)NC(=O)CNC(=O)[C@H](CCC(=O)O)NC(=O)[C@H](CC(C)C)NC(=O)[C@H](Cc1ccc(O)cc1)NC(=O)[C@H](CO)NC(=O)[C@H](CO)NC(=O)[C@@H](NC(=O)[C@H](CC(=O)O)NC(=O)[C@H](CO)NC(=O)[C@@H](NC(=O)[C@H](Cc1ccccc1)NC(=O)[C@@H](NC(=O)CNC(=O)[C@H](CCC(=O)O)NC(=O)[C@H](C)NC(=O)[C@H](Cc1c[nH]cn1)NC(=O)CNC(=O)CNC(=O)[C@@H](NC(=O)[C@@H]1CCCN1C(=O)[C@@H](NC(=O)CN)[C@@H](C)CC)[C@@H](C)CC)[C@@H](C)O)[C@@H](C)O)C(C)C)C(=O)N[C@@H](C)C(=O)N[C@@H](Cc1c[nH]c2ccccc12)C(=O)N[C@@H](CC(C)C)C(=O)N[C@H](C(=O)N[C@@H](CCCCN)C(=O)NCC(=O)N[C@@H](CCCNC(=N)N)C(=O)NCC(=O)NCC(=O)N[C@@H](CCCCN)C(=O)NCC(=O)N[C@@H](CO)C(=O)N[C@H]1CSSC[C@@H](C(=O)N[C@@H](Cc2ccc(O)cc2)C(=O)NCC(=O)O)NC(=O)[C@H](CCC(N)=O)NC(=O)[C@@H]2CCCN2C(=O)[C@@H]2CCCN2C(=O)[C@H]([C@@H](C)CC)NC(=O)[C@H](CO)NC(=O)[C@H](Cc2ccc(O)cc2)NC(=O)[C@H]([C@@H](C)O)NC1=O)C(C)C [D-GLP-1-CH4]	100.0 ± 0.0	81.6 ± 1.9	76.4 ± 4.2	80.8 ± 1.4	75.1 ± 2.4	71 ± 3	
33.4 ± 1.7	32.6 ± 0.7	28.9 ± 1.1	31.9 ± 2.9	31.3 ± 0.8	30.9 ± 1	32.6 ± 0.6	36.2 ± 1.4	100.0 ± 0.0	98.4 ± 7.3	94.6 ± 2.1	101 ± 5.5	91.6 ± 6.8	43.7 ± 2.1	CC[C@H](C)[C@H](NC(=O)[C@H](Cc1ccccc1)NC(=O)[C@H](CCC(=O)O)NC(=O)[C@H](CCCCN)NC(=O)[C@H](C)NC(=O)[C@H](C)NC(=O)[C@H](CCC(N)=O)NC(=O)CNC(=O)[C@H](CCC(=O)O)NC(=O)[C@H](CC(C)C)NC(=O)[C@H](Cc1ccc(O)cc1)NC(=O)[C@H](CO)NC(=O)[C@H](CO)NC(=O)[C@@H](NC(=O)[C@H](CC(=O)O)NC(=O)[C@H](CO)NC(=O)[C@@H](NC(=O)[C@H](Cc1ccccc1)NC(=O)[C@@H](NC(=O)CNC(=O)[C@H](CCC(=O)O)NC(=O)[C@H](C)NC(=O)[C@H](Cc1c[nH]cn1)NC(=O)CNC(=O)CNC(=O)[C@@H](NC(=O)[C@@H]1CCCN1C(=O)[C@@H](NC(=O)CN)[C@@H](C)CC)[C@@H](C)CC)[C@@H](C)O)[C@@H](C)O)C(C)C)C(=O)N[C@@H](C)C(=O)N[C@@H](Cc1c[nH]c2ccccc12)C(=O)N[C@@H](CC(C)C)C(=O)N[C@H](C(=O)N[C@@H](CCCCN)C(=O)NCC(=O)N[C@@H](CCCNC(=N)N)C(=O)NCC(=O)NCC(=O)N[C@@H](CCCCN)C(=O)NCC(=O)N[C@@H](Cc1ccccc1)C(=O)N[C@H]1CSSC[C@@H](C(=O)N[C@@H](Cc2ccc(O)cc2)C(=O)NCC(=O)O)NC(=O)[C@H](CCC(N)=O)NC(=O)[C@@H]2CCCN2C(=O)[C@@H]2CCCN2C(=O)[C@H]([C@@H](C)CC)NC(=O)[C@H](CO)NC(=O)[C@H](Cc2ccc(O)cc2)NC(=O)[C@H]([C@@H](C)O)NC1=O)C(C)C [D-GLP-1-CH10]	100.0 ± 0.0	64.9 ± 3.7	66.2 ± 1	69.3 ± 3.3	70.8 ± 0.4	74.4 ± 0.3	stability towards chymotrypsin hydrolysis (in words) (chymotrypsin): lower residual amount; serum stability (in words) [1]: more stable in serum

— patent US20230416329A1, “A PEPTIDE WITH DISULFIDE BONDS AND INHIBITORY ACTIVITY AGAINST SERINE PROTEASES, DERIVED HYBRID PEPTIDES THEREOF, AND USES THEREOF” (INSTITUTE OF MATERIA MEDICA , CHINESE ACADEMY OF MEDICAL …, priority 2020, published 2023)
